Reference: ChEMBL document CHEMBL6153050, “Repurposing FDA-approved drugs to target G-quadruplexes in breast cancer” (Eur J Med Chem, 2025)
The source made the active and inactive calls. The calls are words filed in the database; no cut-off is given here.

Columns and labels:
Quadruplex DNA [1] = settings: time 10.0 min
Quadruplex DNA [2] = settings: time 10.0 min; remark: listed apart in the source
Quadruplex RNA [3] = settings: time 10.0 min
Quadruplex RNA [4] = settings: time 10.0 min; remark: listed apart in the source
Quadruplex DNA [5] = settings: time 10.0 min; remark: listed apart in the source
Quadruplex DNA [6] = settings: time 10.0 min; remark: listed apart in the source
MCF7 = assay: Cytotoxicity against human MCF7 cells assessed as reduction in cell viability at 0.625 to 20 uM incubated for 6 days by SRB assay; format: functional, cell-based; settings: dose 0.625-20 µM, time 6.0 day

For `CCCCOc1cc(C(=O)NCCN(CC)CC)c2ccccc2n1`, the deltaTm1/2 (Quadruplex DNA [1]) was 4.4 °C, the deltaTm1/2 (Quadruplex DNA [2]) was 5.4 °C and the deltaTm1/2 (Quadruplex RNA [3]) was 1 °C. The deltaTm1/2 (Quadruplex RNA [4]) was 3.2 °C, the deltaTm1/2 (Quadruplex DNA [5]) was 0.2 °C and the deltaTm1/2 (Quadruplex DNA [6]) was 2.8 °C.
Compound `CCN(CC)CCCC(C)Nc1c2ccc(Cl)cc2nc2ccc(OC)cc12` (stereo not given) has a deltaTm1/2 (Quadruplex DNA [1]) of 18.5 °C, a deltaTm1/2 (Quadruplex DNA [2]) of over 20 °C and a deltaTm1/2 (Quadruplex RNA [3]) of 15.4 °C. The deltaTm1/2 (Quadruplex RNA [4]) was over 20 °C, the deltaTm1/2 (Quadruplex DNA [5]) was over 20 °C and the deltaTm1/2 (Quadruplex DNA [6]) was over 20 °C.
For `CCc1cc2c(cc1N1CCC(N3CCOCC3)CC1)C(C)(C)c1[nH]c3cc(C#N)ccc3c1C2=O`, the deltaTm1/2 (Quadruplex DNA [1]) was -3.3 °C, the deltaTm1/2 (Quadruplex DNA [2]) was 2.5 °C and the deltaTm1/2 (Quadruplex RNA [3]) was 1.1 °C. The deltaTm1/2 (Quadruplex RNA [4]) was 4.6 °C, the deltaTm1/2 (Quadruplex DNA [5]) was 0 °C and the deltaTm1/2 (Quadruplex DNA [6]) was -1.1 °C.
In the case of `CCn1cc(C(=O)O)c(=O)c2cc(F)c(N3CCN(C)CC3)cc21`, the deltaTm1/2 (Quadruplex DNA [1]) was 4.5 °C, the deltaTm1/2 (Quadruplex DNA [2]) was 8 °C and the deltaTm1/2 (Quadruplex RNA [3]) was 3.3 °C. The deltaTm1/2 (Quadruplex RNA [4]) was 9.8 °C, the deltaTm1/2 (Quadruplex DNA [5]) was 4.6 °C and the deltaTm1/2 (Quadruplex DNA [6]) was 1 °C.
`CN(C)CCCOc1nn(Cc2ccccc2)c2ccccc12` gave a deltaTm1/2 (Quadruplex DNA [1]) of 3 °C, a deltaTm1/2 (Quadruplex DNA [2]) of 8.4 °C and a deltaTm1/2 (Quadruplex RNA [3]) of 0.3 °C. For the same compound, the deltaTm1/2 (Quadruplex RNA [4]) was 5.1 °C, the deltaTm1/2 (Quadruplex DNA [5]) was 2.5 °C and the deltaTm1/2 (Quadruplex DNA [6]) was 1.1 °C.
Compound `CN1CCC[C@@H]1Cc1c[nH]c2ccc(CCS(=O)(=O)c3ccccc3)cc12` has a deltaTm1/2 (Quadruplex DNA [1]) of 5.2 °C, a deltaTm1/2 (Quadruplex DNA [2]) of 6 °C and a deltaTm1/2 (Quadruplex RNA [3]) of 0.8 °C. For the same compound, the deltaTm1/2 (Quadruplex RNA [4]) was 4.5 °C, the deltaTm1/2 (Quadruplex DNA [5]) was 0.6 °C and the Activity (MCF7) was “Active”. For the same compound, the deltaTm1/2 (Quadruplex DNA [6]) was 4 °C.
In the case of `CONC(=O)Nc1ccc(-c2sc3c(c2CN(C)C)c(=O)n(-c2ccc(OC)nn2)c(=O)n3Cc2c(F)cccc2F)cc1`, the deltaTm1/2 (Quadruplex DNA [1]) was 1.9 °C, the deltaTm1/2 (Quadruplex DNA [2]) was 9.8 °C and the deltaTm1/2 (Quadruplex RNA [3]) was -0.2 °C. The deltaTm1/2 (Quadruplex RNA [4]) was 9.7 °C, the deltaTm1/2 (Quadruplex DNA [5]) was 2.4 °C and the deltaTm1/2 (Quadruplex DNA [6]) was 4.3 °C.
`COc1c(-c2ccc3cc(NS(C)(=O)=O)ccc3c2)cc(-n2ccc(=O)[nH]c2=O)cc1C(C)(C)C` showed a deltaTm1/2 (Quadruplex DNA [1]) of 4.5 °C, a deltaTm1/2 (Quadruplex DNA [2]) of 1.4 °C and a deltaTm1/2 (Quadruplex RNA [3]) of -0.3 °C. For the same compound, the deltaTm1/2 (Quadruplex RNA [4]) was 2.6 °C, the deltaTm1/2 (Quadruplex DNA [5]) was -0.4 °C and the deltaTm1/2 (Quadruplex DNA [6]) was -0.7 °C.
`COc1cc(NC(C)CCCN)c2ncccc2c1` (stereo not given) showed a deltaTm1/2 (Quadruplex DNA [1]) of -2.6 °C, a deltaTm1/2 (Quadruplex DNA [2]) of 3.6 °C and a deltaTm1/2 (Quadruplex RNA [3]) of 0.3 °C. The deltaTm1/2 (Quadruplex RNA [4]) was 4.2 °C, the deltaTm1/2 (Quadruplex DNA [5]) was 0.4 °C and the deltaTm1/2 (Quadruplex DNA [6]) was 3.7 °C.
